According to ChEMBL document CHEMBL4251601 (Eur J Med Chem, 2018):

How the values were obtained:
[1] = AUC (0 to 24 hrs) in Sprague-Dawley rat at 5 mg/kg, po administered as single dose by LC-MS/MS analysis; type: ADME, organism-based; design: time < 24 hr, dose 5 mg/kg, route oral; conditions: in vivo
[2] = Volume of distribution at steady state in Sprague-Dawley rat at 2 mg/kg, iv administered as single dose by LC-MS/MS analysis; type: ADME, organism-based; conditions: in vivo, read-out: Vdss
[3] = AUC (0 to infinity) in Sprague-Dawley rat at 2 mg/kg, iv administered as single dose by LC-MS/MS analysis; type: ADME, organism-based; design: dose 2 mg/kg, route intravenous, time infinity; conditions: Sprague-Dawley, in vivo
[4] = target: Cyclin-dependent kinase 4/cyclin D1 (Homo sapiens, UniProt P11802); test: Inhibition of CDK4/Cyclin-D1 (unknown origin) using histone-H1 as substrate after 90 mins by ADP-Glo assay; type: protein-complex assay
CDK1/Cyclin A = CDK1/Cyclin A (Homo sapiens, UniProt P06493); test: Inhibition of CDK1/Cyclin-A2 (unknown origin) using histone-H1 as substrate after 90 mins by ADP-Glo assay; type: protein-complex assay
[5] = Cmax in Sprague-Dawley rat at 5 mg/kg, po administered as single dose by LC-MS/MS analysis; type: ADME, organism-based; design: dose 5 mg/kg, route oral; conditions: in vivo
[6] = Clearance in Sprague-Dawley rat at 2 mg/kg, iv administered as single dose by LC-MS/MS analysis; type: ADME, organism-based; conditions: in vivo
[7] = AUC (0 to 24 hrs) in Sprague-Dawley rat at 2 mg/kg, iv administered as single dose by LC-MS/MS analysis; type: ADME, organism-based; design: dose 2 mg/kg, time < 24 hr, route intravenous; conditions: in vivo
[8] = Oral bioavailability in Sprague-Dawley rat at 5 mg/kg administered as single dose by LC-MS/MS analysis; type: ADME, organism-based; conditions: Sprague-Dawley, in vivo
CDK6/cyclin D3 = CDK6/cyclin D3 (Homo sapiens, UniProt Q00534); test: Inhibition of CDK6/Cyclin-D3 (unknown origin) using histoneH1 as substrate after 90 mins by ADP-Glo assay; type: protein-complex assay
[9] = Half life in Sprague-Dawley rat at 2 mg/kg, iv administered as single dose by LC-MS/MS analysis; type: ADME, organism-based; conditions: in vivo
Homo sapiens = species on record: Homo sapiens; test: Selectivity ratio of IC50 for CDK1/Cyclin-A2 (unknown origin) to IC50 for CDK6/Cyclin-D3 (unknown origin)
[10] = AUC (0 to infinity) in Sprague-Dawley rat at 5 mg/kg, po administered as single dose by LC-MS/MS analysis; type: ADME, organism-based; design: dose 5 mg/kg, route oral, time infinity; conditions: Sprague-Dawley, in vivo
[11] = Half life in Sprague-Dawley rat at 5 mg/kg, po administered as single dose by LC-MS/MS analysis; type: ADME, organism-based; conditions: in vivo
[12] = Stability in CD-1 mouse liver microsomes assessed as parent compound remaining at 10 uM preincubated for 5 mins followed by NADP addition measured after 60 mins by LC-MS/MS analysis; type: ADME, microsome; conditions: read-out: Stability
[13] = Half life in CD-1 mouse liver microsomes at 10 uM preincubated for 5 mins followed by NADP addition by LC-MS/MS analysis; type: ADME, microsome
[14] = Stability in CD-1 mouse liver microsomes assessed as parent compound remaining at 10 uM measured after 60 mins in absence of NADPH-regenerating system by LC-MS/MS analysis; type: ADME, microsome; conditions: read-out: Stability
[15] = Intrinsic clearance in CD-1 mouse liver microsomes at 10 uM preincubated for 5 mins followed by NADP addition by LC-MS/MS analysis; type: ADME, microsome; conditions: read-out: CLH

Sequence of Cyclin-dependent kinase 4/cyclin D1 (P11802 whole entry): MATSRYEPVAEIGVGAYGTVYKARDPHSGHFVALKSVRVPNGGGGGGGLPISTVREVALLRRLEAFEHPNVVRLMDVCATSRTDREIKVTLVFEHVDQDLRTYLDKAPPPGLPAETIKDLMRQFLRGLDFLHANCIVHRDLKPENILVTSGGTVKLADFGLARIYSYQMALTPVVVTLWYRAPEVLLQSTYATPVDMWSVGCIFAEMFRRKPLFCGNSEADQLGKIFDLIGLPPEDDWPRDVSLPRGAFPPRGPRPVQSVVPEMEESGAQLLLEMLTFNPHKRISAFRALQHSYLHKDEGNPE
Sequence of Cyclin-dependent kinase 4/cyclin D1 (P24385 whole entry, further chain): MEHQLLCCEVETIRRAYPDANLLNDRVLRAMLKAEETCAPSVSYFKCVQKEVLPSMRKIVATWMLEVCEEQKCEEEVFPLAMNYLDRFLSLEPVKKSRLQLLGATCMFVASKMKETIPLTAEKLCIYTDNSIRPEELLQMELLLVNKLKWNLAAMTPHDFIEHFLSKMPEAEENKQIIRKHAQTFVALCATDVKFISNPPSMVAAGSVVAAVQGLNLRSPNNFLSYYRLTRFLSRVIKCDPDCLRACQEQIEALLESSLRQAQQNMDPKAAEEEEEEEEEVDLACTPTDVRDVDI
Sequence of CDK1/Cyclin A (P06493 whole entry): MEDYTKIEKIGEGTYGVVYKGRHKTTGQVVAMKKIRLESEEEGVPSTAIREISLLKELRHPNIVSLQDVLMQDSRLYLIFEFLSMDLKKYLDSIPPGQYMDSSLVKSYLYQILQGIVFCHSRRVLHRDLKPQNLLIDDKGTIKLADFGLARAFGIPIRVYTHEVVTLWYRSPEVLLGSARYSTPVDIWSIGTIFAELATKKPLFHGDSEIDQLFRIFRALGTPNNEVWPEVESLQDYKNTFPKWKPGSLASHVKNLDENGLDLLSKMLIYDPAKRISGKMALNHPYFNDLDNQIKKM
Sequence of CDK1/Cyclin A (P20248 whole entry, further chain): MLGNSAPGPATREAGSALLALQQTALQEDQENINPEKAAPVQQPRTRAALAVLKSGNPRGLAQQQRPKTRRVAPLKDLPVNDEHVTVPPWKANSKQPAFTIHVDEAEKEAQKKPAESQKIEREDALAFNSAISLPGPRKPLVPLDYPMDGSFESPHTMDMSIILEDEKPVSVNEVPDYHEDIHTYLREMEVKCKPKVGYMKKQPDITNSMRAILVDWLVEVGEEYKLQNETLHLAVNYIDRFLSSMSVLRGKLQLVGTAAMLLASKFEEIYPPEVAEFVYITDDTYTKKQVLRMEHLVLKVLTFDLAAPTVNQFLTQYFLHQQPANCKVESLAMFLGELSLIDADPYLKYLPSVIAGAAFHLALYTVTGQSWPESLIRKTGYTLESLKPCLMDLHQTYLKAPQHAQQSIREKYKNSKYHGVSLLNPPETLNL
Sequence of CDK6/cyclin D3 (P30281 whole entry): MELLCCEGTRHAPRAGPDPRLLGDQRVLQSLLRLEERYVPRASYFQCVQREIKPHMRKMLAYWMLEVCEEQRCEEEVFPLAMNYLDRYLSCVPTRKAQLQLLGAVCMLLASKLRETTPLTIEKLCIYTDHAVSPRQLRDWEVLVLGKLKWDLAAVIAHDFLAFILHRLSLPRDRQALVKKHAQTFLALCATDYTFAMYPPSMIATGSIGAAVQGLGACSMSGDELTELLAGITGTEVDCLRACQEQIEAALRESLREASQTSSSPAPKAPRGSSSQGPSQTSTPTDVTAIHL
Sequence of CDK6/cyclin D3 (Q00534 whole entry): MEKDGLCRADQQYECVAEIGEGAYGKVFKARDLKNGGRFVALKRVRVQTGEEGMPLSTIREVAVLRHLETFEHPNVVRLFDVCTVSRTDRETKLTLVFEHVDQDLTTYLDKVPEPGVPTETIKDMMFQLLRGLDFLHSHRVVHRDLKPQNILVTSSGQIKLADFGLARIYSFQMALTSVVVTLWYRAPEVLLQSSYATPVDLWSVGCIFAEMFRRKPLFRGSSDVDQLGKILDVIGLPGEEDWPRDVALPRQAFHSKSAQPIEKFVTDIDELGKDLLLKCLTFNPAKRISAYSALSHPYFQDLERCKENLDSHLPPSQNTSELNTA

AUC(0-t) at 24 h [1]	Vd [2]	AUC(0-inf) [3]	IC50 [4]	IC50 (CDK1/Cyclin A)	Cmax [5]	clearance [6]	AUC(0-t) at 24 h [7]	bioavailability [8]	IC50 (CDK6/cyclin D3)	half-life [9]	Ratio IC50 (Homo sapiens)	AUC(0-inf) [10]	half-life [11]	remaining at 1 h, 10 µM [12]	half-life at 10 µM [13]	remaining at 1 h, 10 µM [14]	microsomal CLint at 10 µM [15]	Compound
145 ng·h/mL	28.1 L/kg	270 ng·h/mL	44 nM	84 nM	18 ng/mL	125 mL/min/kg	256 ng·h/mL	23%	3 nM	3 h	28							CCC1(C)C(C)=Nc2c(F)cc(-c3nc(Nc4ccc(N5CCNCC5)cn4)ncc3F)cc21 (stereo unspecified)
			18 nM	54 nM					9 nM		6							CCC1(C)C(C)=Nc2ccc(-c3nc(Nc4ccc(C5CCN(C)CC5)cn4)ncc3F)cc21 (stereo unspecified)
				65 nM							1							CCN1CCN(c2ccc(Nc3ncc(F)c(-c4cc(F)c5c(c4)C(C)(CC)C(C)=N5)n3)nc2)CC1 (stereo unspecified)
											9							CCN1CCN(Cc2ccc(Nc3ncc(F)c(-c4cc(F)c5c(c4)C(CC)(CC)C(C)=N5)n3)nc2)CC1
842 ng·h/mL	5.7 L/kg	2230 ng·h/mL	18 nM		70.4 ng/mL	15 mL/min/kg	2110 ng·h/mL	16%	16 nM	7 h		1360 ng·h/mL	9.8 h					CCN1CCN(c2ccc(Nc3ncc(F)c(-c4cc(F)c5c(c4)C4(CCCC4)C(C)=N5)n3)nc2)CC1
269 ng·h/mL	15.7 L/kg	458 ng·h/mL	15 nM		28.9 ng/mL	72.9 mL/min/kg	442 ng·h/mL	24%	9 nM	4.8 h	46	382 ng·h/mL						CC1=Nc2ccc(-c3nc(Nc4ccc(N5CCN(C)CC5)cn4)ncc3F)cc2C12CCCC2
				101 nM					4 nM		25							CCN1CCN(c2ccc(Nc3ncc(F)c(-c4ccc5c(c4)C(C)(CC)C(C)=N5)n3)nc2)CC1 (stereo unspecified)
			17 nM						6 nM		55							CC1=Nc2c(F)cc(-c3nc(Nc4ccc(N5CCN(CCO)CC5)cn4)ncc3F)cc2C12CCCC2
867 ng·h/mL	15.6 L/kg	1370 ng·h/mL	8 nM		62.1 ng/mL	24.6 mL/min/kg	1200 ng·h/mL	29%	0.4 nM	8.6 h	818							CC1=Nc2c(F)cc(-c3nc(Nc4ccc(C5CCNCC5)cn4)ncc3F)cc2C12CCCC2
403 ng·h/mL	25.1 L/kg	696 ng·h/mL	33 nM	966 nM	58.5 ng/mL	50.7 mL/min/kg	685 ng·h/mL	23%	26 nM	5.3 h	37	412 ng·h/mL	4.7 h					CCN1CCN(Cc2ccc(Nc3ncc(F)c(-c4cc(F)c5c(c4)C(C)(CC)C(C)=N5)n3)nc2)CC1 (stereo unspecified)
			4 nM						4 nM		7							CC1=Nc2ccc(-c3nc(Nc4ccc(C5CCNCC5)cn4)ncc3F)cc2C12CCCC2
				2220 nM							52							CC1=Nc2c(F)cc(-c3nc(Nc4ccc(N5CCNCC5)cn4)ncc3F)cc2C1(C)C
1980 ng·h/mL	11.6 L/kg	3190 ng·h/mL	6 nM		143 ng/mL	10.8 mL/min/kg	2250 ng·h/mL	35%	4 nM	13.2 h	268							CCN1CCC(c2ccc(Nc3ncc(F)c(-c4cc(F)c5c(c4)C4(CCCC4)C(C)=N5)n3)nc2)CC1
			42 nM	125 nM					19 nM		6							CCN1CCC(c2ccc(Nc3ncc(F)c(-c4ccc5c(c4)C(C)(CC)C(C)=N5)n3)nc2)CC1 (stereo unspecified)
									0.5 nM		352							CC1=Nc2c(F)cc(-c3nc(Nc4ccc(C5CCN(CCO)CC5)cn4)ncc3F)cc2C12CCCC2
287 ng·h/mL	40.1 L/kg	447 ng·h/mL	16 nM	131 nM	22.3 ng/mL	77.8 mL/min/kg	404 ng·h/mL	28%	9 nM	7 h	14							CCC1(C)C(C)=Nc2c(F)cc(-c3nc(Nc4ccc(C5CCN(C)CC5)cn4)ncc3F)cc21 (stereo unspecified)

AUC(0-t) at 24 h [1]	Vd [2]	AUC(0-inf) [3]	IC50 [4]	IC50 (CDK1/Cyclin A)	Cmax [5]	clearance [6]	AUC(0-t) at 24 h [7]	bioavailability [8]	IC50 (CDK6/cyclin D3)	half-life [9]	Ratio IC50 (Homo sapiens)	AUC(0-inf) [10]	half-life [11]	remaining at 1 h, 10 µM [12]	half-life at 10 µM [13]	remaining at 1 h, 10 µM [14]	microsomal CLint at 10 µM [15]	Compound
106 ng·h/mL	28.1 L/kg	270 ng·h/mL	3 nM		13.7 ng/mL	125 mL/min/kg	256 ng·h/mL	16%	3 nM	3 h	27							CCC1(CC)C(C)=Nc2c(F)cc(-c3nc(Nc4ccc(N5CCNCC5)cn4)ncc3F)cc21
			78 nM	1060 nM					10 nM		106							CC1=Nc2c(F)cc(-c3nc(Nc4ccc(N5CCN(C(C)C)CC5)cn4)ncc3F)cc2C12CCCC2
			28 nM	142 nM							14							CCC1(C)C(C)=Nc2ccc(-c3nc(Nc4ccc(N5CCNCC5)cn4)ncc3F)cc21 (stereo unspecified)
				166 nM					16 nM		10							CCC1(C)C(C)=Nc2ccc(-c3nc(Nc4ccc(C5CCNCC5)cn4)ncc3F)cc21 (stereo unspecified)
			13 nM						7 nM		38							CCN1CCN(Cc2ccc(Nc3ncc(F)c(-c4ccc5c(c4)C4(CCCC4)C(C)=N5)n3)nc2)CC1
980 ng·h/mL	11 L/kg	1180 ng·h/mL	4 nM		80.3 ng/mL	28.3 mL/min/kg	1140 ng·h/mL	34%	4 nM	4.8 h	58							CC1=Nc2ccc(-c3nc(Nc4ccc(N5CCNCC5)cn4)ncc3F)cc2C12CCCC2
	17.9 L/kg	213 ng·h/mL	10 nM	96 nM		167 mL/min/kg	204 ng·h/mL			1.4 h	11							CCC1(CC)C(C)=Nc2c(F)cc(-c3nc(Nc4ccc(N5CCN(C)CC5)cn4)ncc3F)cc21
				110 nM					6 nM		18							CCC1(C)C(C)=Nc2c(F)cc(-c3nc(Nc4ccc(C5CCNCC5)cn4)ncc3F)cc21 (stereo unspecified)
671 ng·h/mL	17.2 L/kg	1000 ng·h/mL	8 nM		56.6 ng/mL	34.7 mL/min/kg	949 ng·h/mL	28%	6 nM	5.8 h	25			24%	0.47 h	94.4%	49.2 µL/min/mg	CC1=Nc2c(F)cc(-c3nc(Nc4ccc(N5CCNCC5)cn4)ncc3F)cc2C12CCCC2
386 ng·h/mL	8.5 L/kg	796 ng·h/mL			37 ng/mL	42.3 mL/min/kg	761 ng·h/mL	21%		3.8 h	16	420 ng·h/mL	5.1 h					CC1=Nc2c(F)cc(-c3nc(Nc4ccc(N5CCN(C)CC5)cn4)ncc3F)cc2C12CCCC2
			16 nM	216 nM					12 nM		18							CCN1CCC(c2ccc(Nc3ncc(F)c(-c4cc(F)c5c(c4)C(C)(CC)C(C)=N5)n3)nc2)CC1 (stereo unspecified)
			8 nM						4 nM		12							CC1=Nc2ccc(-c3nc(Nc4ccc(C5CCN(C)CC5)cn4)ncc3F)cc2C12CCCC2
	6.4 L/kg	504 ng·h/mL	6 nM	153 nM		69.2 mL/min/kg	496 ng·h/mL		1 nM	2.1 h	153							CCC1(C)C(C)=Nc2c(F)cc(-c3nc(Nc4ccc(N5CCN(C)CC5)cn4)ncc3F)cc21 (stereo unspecified)
			35 nM	112 nM					5 nM		22							CCC1(C)C(C)=Nc2ccc(-c3nc(Nc4ccc(N5CCN(C)CC5)cn4)ncc3F)cc21 (stereo unspecified)
											5							CCN1CCC(c2ccc(Nc3ncc(F)c(-c4ccc5c(c4)C4(CCCC4)C(C)=N5)n3)nc2)CC1
